Results on two molecules are retold here after patent US7592328B2, “Natural cyclodextrin complexes” (Pedipharm Oy, priority 2002, dated 2009).

Data set [1] in a line: dissolution of CBD from a gelatine capsule in 2% RM-β-CD dissolution media. The format is physicochemical. The conditions noted are these: gelatine capsule with 1.0 mg pure CBD and 99 mg lactose, pH 6.6, n=6.
For data set [2] the following is noted: 40% solution of HP-β-CD; cited from earlier work.
For data set [3] the following is noted: oral administration, depending on the drug vehicle employed; cited from earlier work.

SMILES strings stand for the structures.

`C=C(C)[C@@H]1CCC(C)=C[C@H]1c1c(O)cc(CCCCC)cc1O` [CBD, cannabidiol]: the “time in which CBD is not fully dissolved” value in data set [1] was > 3 h.
For `CCCCCc1cc(O)c2c(c1)OC(C)(C)[C@@H]1CCC(C)=C[C@@H]21` [THC, Δ^9-tetrahydrocannabinol], the “THC solution concentration obtained” value in data set [2] was 1 mg/mL. For the same molecule, the bioavailability in data set [3] was 6-20%.
